From patent US20120083473A1, “TREATMENT OF CONDITIONS BY TOLL-LIKE RECEPTOR MODULATORS” (priority 2010, published 2012)

Tests used:
[1] = test system: murine peritoneal macrophages (PEC); test: Secretion of M1 and M2 gene products by TMX-tolerant PEC (ELISA); format: cell-based, mice
Method: Based on the results of the gene expression analysis, performed by Real-Time PCR, selected gene products are validated at protein level, either by cytofluorimetry (surface molecules) or ELISA (secreted products).
The secretion of selected M1 and M2 gene products by TMX-tolerant murine peritoneal macrophages (PEC) was evaluated.
Cell Culture and treatments. Peritoneal exudate cells (PEC) were harvested from mice injected with 1 ml of 3% (w/v) thioglycollate medium (Difco, Detroit, Mich.) 4 days prior to isolation. PECs were incubated in RPMI 1640 medium, containing 10% fetal bovine serum, 2 mM glutamine and 100 U/ml of penicillin-streptomycin. The concentration for the different treatments were as follows: LPS (100 ng/ml) (Lipopolysaccharide from Salmonella Abortus Equi S-form, Alexis), CpG (1 μg/ml), Pam3CSK (2 μg/ml), Poly I:C (10 μg/ml), Loxorubine (100 μM), flagellin (100 ng/ml) IL-1β (20 ng/ml), TNF (20 ng/ml), IL-10 (20 ng/ml) (Peprotech), IFNγ (200 U/ml) (Peprotech). To induce TMX tolerance, cells were incubated in the presence of TMX (10 μM or 1 μM) for 20 hrs, washed and maintained in RPMI medium for 2 hrs and then re-challenged with TMX (10 μM) for 4 hrs. To induce TMX-tolerization (T/M) cells were treated with TMX for 20 hrs, washed and then maintained in medium for additional 6 hours, without TMX re-challenge. […]

human monocytes (Mo) = test: Cytokine/chemokine secretion by TMX-tolerant human monocytes (ELISA); format: cell-based
Method: Cell Culture and treatments. Monocytes (Mo) were obtained from buffycoats collected from healthy donors as previously described (Porta C et al, PNAS 2009). Cells were incubated in RPMI 1640 medium, containing 10% fetal bovine serum, 2 mM glutamine and 100 U/ml of penicillin-streptomycin. The concentrations for the different treatments were as follows: LPS (100 ng/ml) (Lipopolysaccharide from Salmonella Abortus Equi S-form, Alexis), CpG (1 microg/ml), Pam3CSK (2 microg/ml), Poly I:C (10 microg/ml), Loxorubine (100 microM), flagellin (100 ng/ml). To induce TMX tolerance, cells were incubated in the presence of TMX (10 microM) for 20 hrs, washed and maintained in RPMI medium for 2 hrs and then re-challenged with TMX (10 microM) for 4 hrs. To induce TMX-tolerization (T/M) cells were treated with TMX for 20 hrs, washed and then maintained in medium for additional 6 hours, without TMX re-challenge. To induce M1-activation cells were incubated in medium for 20 hrs, washed, left in medium for 2 hrs and finally stimulated with TMX (10 microM) for 4 hrs. Control cells (M/M) were cultured in medium for the entire period of the experiment. For gene expression analysis, total RNA was extracted from TMX treated and untreated cells with trizol (Invitrogen), according to the manufacturer's instructions. To analyze cytokines and chemokines production supernatants were collected 24 hrs after the second challenge with TMX.
ELISA. Cell-free supernatants were tested by ELISA for the indicated cytokines/chemokines. Human TNF-alpha, IL-6, IL-1beta, IL-10, CCL17 and CCL22 ELISA kits were purchased from R&D Systems (Minneapolis, Minn.).

[2] = PK analysis after i.v. administration in mice; format: in vivo
[3] = test system: Peritoneal macrophages (PEC); test: Tolerance and M1/M2 gene expression in murine peritoneal macrophages (Real-Time PCR); format: cell-based, mice
Method: Peritoneal macrophages (PEC) isolated from C57 black mice are used to test the tolerogenic effects of compound 2 of Table 2. The effects of this TLR7 ligand are analyzed in terms of gene expression (Real-Time PCR) of both pro-inflammatory (e.g. TNF-alpha, IL-1, IL-6) and anti-inflammatory (e.g. IL-10, TGF-beta) cytokines. Further, additional markers of M1 (e.g. iNOS, IL-12, IFN-beta, CXCL9, CXCL10) versus M2 (e.g. arginase I, Ym1, Fizz1, CCL17, CCL22, dectin 1, MGL) macrophage polarization is determined, in order to evaluate the polarizing activities of this compound. This analysis is instrumental to the understanding of mechanisms driving the tolerogenic action of compound 2 of Table 2, as an M2 polarized response is considered to be an alternative anti-inflammatory and “tolerogenic” macrophage program.
With respect to macrophage tolerance, cells are treated with two doses of compound 2 of Table 2 (1 microM and 10 microM) up to 20 hours and then re-challenged with agonists/ligands of different TLRs (TLR2, TLR4, TLR5, TLR9, TLR7, etc.), including the TLR7 unconjugated ligand 1V209 (free pharmacophore) at a concentration of 10 microM.
In a first run of experiments, the tolerogenic and polarizing ability of compound 2 of Table 2, which also is referred to hereafter as “TMX,” was evaluated. To induce tolerance, PEC were pre-treated for 20 hours with 10 μM or 1 μM TMX. Next, total RNA from control (M/M), TMX activated (M/T), 1V209 (free pharmacophore)-activated (M/I), tolerant (T/M) and tolerant PEC re-challenged with TMX (T/T) or with 1V209 (free pharmacophore) (T/I), were analyzed by RT PCR for the expression of representative M1 and M2 genes. […] However, most of the M1 genes transcripts were still induced (FIG. 1C, D).
Cell Culture and treatments. Peritoneal exudate cells (PEC) were harvested from mice injected with 1 ml of 3% (w/v) thioglycollate medium (Difco, Detroit, Mich.) 4 days prior to isolation. PECs were incubated in RPMI 1640 medium, containing 10% fetal bovine serum, 2 mM glutamine and 100 U/ml of penicillin-streptomycin. The concentration for the different treatments were as follows: LPS (100 ng/ml) (Lipopolysaccharide from Salmonella Abortus Equi S-form, Alexis), CpG (1 μg/ml), Pam3CSK (2 μg/ml), Poly I:C (10 μg/ml), Loxorubine (100 μM), flagellin (100 ng/ml) IL-1β (20 ng/ml), TNF (20 ng/ml), IL-10 (20 ng/ml) (Peprotech), IFNγ (200 U/ml) (Peprotech). To induce TMX tolerance, cells were incubated in the presence of TMX (10 μM or 1 μM) for 20 hrs, washed and maintained in RPMI medium for 2 hrs and then re-challenged with TMX (10 μM) for 4 hrs. To induce TMX-tolerization (T/M) cells were treated with TMX for 20 hrs, washed and then maintained in medium for additional 6 hours, without TMX re-challenge. To induce M1-activation, cells were incubated in medium for 20 hrs, washed, left in medium for 2 hrs and finally stimulated with TMX (10 μM) for 4 hrs. Control cells (M/M) were cultured in medium for the entire period of the experiment. For gene expression analysis, total RNA was extracted from TMX treated and untreated cells with trizol (Invitrogen), according to the manufacturer's instructions. To analyze cytokines and chemokines production supernatants were collected 24 hrs after the second challenge with TMX.
Real-Time PCR. Total RNA was purified as previously described. Briefly, reverse transcription from 1 μg of RNA was performed using cDNA Archive kit (Applied Biosystem, NJ, USA). Real time PCR was performed using Power Syber Green PCR Master Mix (Applied Biosystem, NJ, USA) and detected by 7900HT Fast Real-Time System (Applied Biosystem, NJ, USA). Data were processed using the SDS2.2.2 software (Applied Biosystem, NJ, USA). Results were normalized to the expression of the housekeeping gene β-actin and then expressed as folds of upregulation, with respect to the control cell population.

[4] = TMX-tolerized cells re-challenged with TMX or 1V209
[5] = PEC pre-treated 20 hours with 10 μM TMX, RT PCR

With `COCCOc1nc(N)c2nc(O)n(Cc3ccc(C(=O)NCCOCCOCCOCCOCCOCCOCCn4cc(CCC(=O)O)nn4)cc3)c2n1` [Compound 2] the “IL-1p and IL-6 in the supernatant of TMX-tolerant macrophages” value ([1]; ELISA) was “increased levels”, the “state of tolerance: M1 and M2 cytokines production” value ([1]; only 10 microM TMX, ELISA of supernatants) was “low M1 and high M2 cytokines production” and the “levels of IL-10 in the supernatant of TMX-tolerant monocytes” value (human monocytes (Mo)) was “decreased”. For the same compound, the “secretion of selected M2 markers (CCL17 and CCL22)” value (human monocytes (Mo); TMX-tolerized Mo from 2 out of 4 healthy donors) was “significantly augmented”, the “CCL17 and CCL22 secretion” value (human monocytes (Mo); [4]) was “induction” and the “TNFalpha and IL-6 secretion” value (human monocytes (Mo); [4]) was “inhibition”. For the same compound, the “IL-10 production by Compound 2-conditioned cells” value (human monocytes (Mo); as stated in comparison of human and mouse data) was “increased”, the “TNF and IL-6 secretion” value (human monocytes (Mo); cells tolerized with TMX and re-challenged with TLR agonists, except for LPS) was “decreased” and the “IL-1beta production in TMX-tolerized cells” value (human monocytes (Mo); re-challenged with TLR agonists) was “all TLR agonists promote IL-1beta production”. For the same compound, the “AUC in comparison with Compound 3” value [2] was “lower”, the “Cmax in comparison with Compound 3” value [2] was “lower” and the “clearance in comparison with Compound 3” value [2] was “higher”. The “half life in comparison with Compound 3” value [2] was “longer”, the M2 gene expression ([3]; 1 μM TMX pre-treatment, except for IL-10) was “did not enhance” and the “M1 (TNF-alpha, IL-12, IFN-beta, CXCL10) gene expression in state of tolerance” value [3, 5] was “low”. For the same compound, the “selected M2 genes (IL-10, TGFβ, Arg I, CCL17, CCL22) in state of tolerance” value [3, 5] was “high levels”, the “M2 markers Ym1, Fizz1, MGL2 gene transcripts” value ([3]; PEC, TMX) was “No significant modulation” and the induction of tolerance ([3]; pre-treatment with 1 μM TMX, except for IL-12p40) was “unable to induce tolerance”. The macrophage activation ([3]; prolonged exposure of PEC to high concentration of TMX) was “M2 skewed activation”.
